Results published in patent US20230124969A1, “OPHTHALMIC FORMULATION COMPRISING N-[5-(AMINOSULFONYL)-4-METHYL-1,3- THIAZOL-2-YL]-N-METHYL-2-[4-(2-PYRIDINYL)PHENYL]ACETAMIDE HEMIHYDRATE” (AiCuris GmbH & Co. KG, priority 2020, published 2023).
Like-named read-outs stand apart in the source and are kept apart here.

Columns and labels:
Assay type in all cases: physicochemical
[1] = Preparation of 1 mg/mL PEG400 stock solution and ophthalmic formulation with different drug substances (experiments 8-10); settings: for suitability as drug substance for preparation of the ophthalmic formulation: three tested drug substances, experiments 1-10
Description: All liquids and the DS were equilibrated to ≥ 20° C. An amount of 20 ml of PEG 400 was added to a 50 mL tube and 20 mg of DS were dissolved therein. The solution was mixed by vortexing the tube for 5 s and the tube was shaken until the DS was dissolved.
To study whether Pritelivir free base hemihydrate can be replaced with Pritelivir mesylate, Experiment 8 was repeated with Pritelivir mesylate monohydrate as DS.
The preparation protocol of Example 8 was followed also for the ophthalmic formulation containing Pritelivir mesylate monohydrate as drug substance.
To study whether Pritelivir free base hemihydrate can be replaced with Pritelivir maleate, Experiment 8 was repeated with Pritelivir maleate as DS.

[2] = Sterile filtration / filter compatibility: HPLC assay before and after filtration; settings: for assay data before and after filtration: Example 3, 0.05 mg/mL DS, PEG200 stock diluted in GenTeal tears
Description: • Dilute 500 µL of each sample with 500 µL ACN/MeOH/H2O ratio 25:25:50 + 1% HAc (1:2) • Mix it 5 s by vortexing
• Dilute 250 µL of each sample with 730 µL ACN/MeOH/H2O ratio 25:25:50 + 1% HAc and add 20 µL ACN/DMSO 4:1 (1:4) • Mix it 5 s by vortexing
(§1) An amount of 1.5 mL stock solution was diluted with 28.5 mL of the respective artificial tears solution (either GenTeal® Tears or Thera® Tears or Visine® tears) in a beaker and stirred for 2 min with a magnet stirrer. The pH value was determined and samples were taken before and after sterile filtration. The solutions were filtered through CA (cellulose acetate) 0.22 µm filter system. The content of the beaker was withdrawn and respectively 14 mL of the prepared formulation were added to two empty 50 mL tubes. In addition, one empty 2 mL tube was provided and 1.5 mL of the prepared formulation was added to the 2 mL tube. The samples were stored at RT and at a temperature in the range of from 2-8° C. over 5 weeks.
(§2) The testing was repeated one time to have samples in duplicate (n=2). An amount of 6 mL of the ophthalmic formulation was withdrawn with a 10 mL syringe. An amount of 1 mL was used to determine the final concentration before filtration. The syringe was connected with a PA 0.2 µm filter via Luer Lok and the solution was filtered. Another sample was taken to determine the final concentration after filtration.
The filter was then disconnected from the syringe and an amount of 3 mL DMSO was withdrawn with the used 10 mL syringe. Then, the syringe was shaken smoothly. An amount of 1 mL was used to determine the final concentration after rinsing. The syringe was again connected to the used PA 0.2 µm filter via Luer Lok the DMSO was filtered. A sample was taken to determine the final concentration after washing.
This protocol was repeated for all tested filters: PA / Nylon, PALE / Nylon, PTFE, PVDF, CM, CA, RC, PP, PES. Each filter contained a filter material with a pore size of 0.2 µm and of 0.45 µm.
as §2, with “repeated” for “repeated one time”, “triplicate (n=3).” for “duplicate (n=2).”, “the” for “a PA 0.2 µm”
The filter was disconnected from the syringe and an amount of 2 mL DMSO was withdrawn with a fresh 10 mL syringe. The syringe was again connected to the used filter via Luer Lok and the DMSO was filtered. […]
(§3) The amount of hydrochloric acid was added as determined in the pre-testing to adjust the pH to 6.0 and a sample was taken to determine the final concentration before filtration. […]

[3] = In-use stability of ophthalmic formulations stored at room temperature and 2-8 °C
Description: To study the in-use stability over 5 weeks at room temperature (RT) and at a temperature in the range of from 2° C. - 8° C., stock solutions with a concentration of 1.0 mg/mL of DS were prepared in PEG200 and in PEG400. The different stock solutions were diluted in 3 different compositions of artificial tears to a final concentration of 0.05 mg DS per mL ophthalmic formulation.
as §1, with “weeks. […]” for “weeks.”
To study the impact of the pH value on the tendency of the ophthalmic formulation to degrade and precipitate 3 different compositions of artificial tears were adjusted to pH 4.0, 5.0 and 6.0. A stock solution of Pritelivir free base hemihydrate in PEG400 at a concentration of 1.0 mg/mL was prepared. The stock solutions were diluted in the pH adjusted artificial tears at a Pritelivir free base hemihydrate concentration of 0.05 mg/mL and filtered through a RC 0.2 µm sterile filter. It turned out to be preferable to carry out the dilution step for each sample one after the other to keep the time before the filtration step short.
All samples were prepared as triplicates. One sample was prepared after the other to keep the preparation time short and to minimize the risk of precipitation. The stock solution was diluted with pH adjusted artificial tears solution in a tube and gently mixed. A sample was taken to determine the final concentration. An amount of 20 mL of the tube was withdrawn with a 20 mL syringe. Then, the syringe was connected to the RC […] filter via Luer Lok and the solution was filtered in two portions of 10 mL each into two 50 mL tube. Another sample was taken to determine the final concentration after filtration.
The samples were stored at room temperature and at a temperature in the range of from 2° C.-8° C. over 4 weeks.
To determine an acceptable pH value for ophthalmic use, a stock solution of Pritelivir free base hemihydrate in PEG400 was prepared at a concentration 1.0 mg/mL. […]
as §3

[4] = Pre-test: PEG 200 stock solutions diluted in GenTeal Tears, visual check for precipitation (Example 1); settings: stock solution in PEG 200 diluted with GenTeal tears, visual inspection
Description: In order to prepare the new ophthalmic formulation the drug substance concentrations of both i) stock solution and ii) drug product which is administered to the patient need to be determined. For that propose, a stock solution with different concentrations of Pritelivir free base hemihydrate in PEG 200 was diluted in GenTeal® tears and the precipitation was checked over time. All liquids and the DS were equilibrated to ≥ 20° C. Seven 10 mL tubes were provided. In each of these tubes, 5 ml of PEG 200 were added and the required amount of DS was dissolved therein to provide the following stock solutions: 30 mg/mL, 25 mg/mL, 20 mg/mL, 10 mg/mL, 5 mg/mL, 1 mg/mL, 0.05 mg/mL. The solutions were mixed by vortexing the tubes for 5 s and the tubes were shaken until the DS was dissolved. The stock solutions were diluted with GenTeal® tears and the pH value was measured. After that the samples were checked for precipitation by visual inspection.

Compound: Cc1nc(N(C)C(=O)Cc2ccc(-c3ccccn3)cc2)sc1S(N)(=O)=O [Pritelivir free base hemihydrate, N-[5-(aminosulfonyl)-4-methyl-1,3-thiazol-2-yl]-N-methyl-2-[4-(2-pyridinyl)phenyl]acetamide hemihydrate]
- suitability as drug substance for preparation of the ophthalmic formulation [1]: suitable
- assay data before and after filtration ([2]; filter material PFTE 0.2 µm): identical values
- assay data before and after filtration ([2]; filter material RC 0.2 µm): identical values
- assay content before and after filtration ([2]; Example 6, 1 mg/mL PEG400 stock diluted with GenTeal Tears to 0.05 mg/mL, RC 0.2 µm filter, six samples): comparable
- impurities on storage ([3]; Example 6, PEG400 stock diluted with GenTeal Tears, 0.05 mg/mL, after 1 week at room temperature): increase of impurities
- time over which samples were stable ([3]; Example 6, PEG400 stock diluted with GenTeal Tears, 0.05 mg/mL, stored at 2-8° C.): 1 week
- stability in most artificial tears solutions ([3]; pH 4.0): not stable
- stability for an ophthalmic formulation ([3]; pH between 6.0 and 7.0, formulation contains glycerin, hypromellose and polyethylene glycol 400): sufficiently stable
- drug load of ophthalmic formulation obtainable without any visually detectable precipitation [4]: 24 mg/mL

Compound: Cc1nc(N(C)C(=O)Cc2ccc(-c3ccccn3)cc2)sc1S(N)(=O)=O.O=C(O)/C=C\C(=O)O [Pritelivir maleate, N-[5-(aminosulfonyl)-4-methyl-1,3-thiazol-2-yl]-N-methyl-2-[4-(2-pyridinyl)phenyl]acetamide maleate]
- solubility in PEG400 / preparation of stock solution ([1]; at a concentration of 1 mg/mL): not possible
- suitability as drug substance for preparation of the ophthalmic formulation [1]: insolubility and precipitation problems

Compound: N-[5-(amino-sulfonyl)-4-methyl-1,3-thiazol-2-yl]-N-methyl-2-[4-(2-pyridinyl)phenyl] acetamide mesylate monohydrate [Pritelvir mesylate monohydrate]
- solubility in PEG400 / preparation of stock solution [1]: not soluble
- precipitation ([1]; Comparative Example 1, protocol of Example 8 (PEG400, Visine Tears, 0.1 M HCl)): Precipitation was observed
- suitability as drug substance for preparation of the ophthalmic formulation [1]: insolubility and precipitation problems
- assay level after filtration ([2]; Comparative Example 1, protocol of Example 8, RC 0.2 µm filter): decreased significantly
